Experimental data published in patent US20240277743A1, “RESTORING PHYSIOLOGY WITH SMALL MOLECULE MIMICS OF MISSING PROTEINS” (The Board of Trustees Of The University Of Illinois, priority 2014, published 2024).

Columns and labels:
[1] = test system: trk1Δtrk2Δ cells; assay: 86Rb+ uptake assay; format: cell-based, Saccharomyces cerevisiae; conditions: 3 μM; FIG. 2F
Protocol: ^86Rb^+ uptake assay. The procedure for 86Rb uptake was adapted from Mulet, J. M. et al. Mol. Cell. Biol. 19, 3328-3337 (1999). Overnight yeast cultures were grown as described above. The supernatant was poured off, and the cells were resuspended in sterile water. This wash was repeated two more times. The cells were then resuspended in 40 mL of the potassium starvation/uptake buffer (50 mM succinic acid, 2% glucose, adjusted to pH 5.5 with Tris). After 3 hour incubation in the potassium starvation buffer, cells were centrifuged and washed twice with sterile water. Cells were resuspended in 1 mL of the potassium starvation/uptake buffer. Cell concentration was determined using an INCYTO®; Neubauer disposable hemocytometer, and wild type S. cerevisiae and trk1Δtrk2Δ cells were diluted to the same cell density. 700 μL of the yeast suspension was added to a 1.5 mL Eppendorf tube. After a 5 minute pre-incubation in the potassium starvation/uptake medium, AmB or C35deOAmB was added (final concentration 3 μM) as a DMSO solution. ^86RbCl (1.1 μCi) was then added to the reaction mixtures. Reaction mixtures were vortexed to ensure a homogeneous solution. […] Moist filters were transferred to plastic vials for measuring radioactivity. Radioactivity was monitored using a Perkin Elmer Wizard automatic gamma counter. […]

[2] = test system: CuFi-1 epithelial monolayers (CFTR-deficient human lung epithelia); assay: Airway surface liquid (ASL) height studies by confocal fluorescence microscopy; format: cell-based
Protocol: Human cell lines and growth conditions. NuLi and CuFi-1 cells were cultured at the air-liquid interface as previously described, using a 1:1 mixture of DMEM: Ham's F-12 supplemented with 2% v/v Ultroser G (Crescent Chemical). Zabner, J. et al. Am. J. Physiol. Lung Cell. Mol. Physiol. 284, […]-[…] (2003). The membrane supports used were Millicell 0.4 μm PCF inserts (Millipore PIHP01250) for Ussing chamber studies, Corning Costar 0.4 μm Transwell Clear Polyester Membrane inserts (Corning 3470) for rotational mucus transport studies, and Millicell 1.0 μm PCF inserts (Millipore PIRP15R48) for ASL studies. These membranes were allowed to mature at an air-liquid interface for a minimum of 14 days to reach full differentiation. Airway surface liquid (ASL) height studies. ASL height was studied using an established fluorescent dye assay. Worthington, E. N. et al. Methods Mol. Biol. 742, 77-92 (2011); Myerburg. M. M. et al. Am. J. Respir. Cell. Mol. Biol. 42, 676-684 (2010). Mature, differentiated membranes were grown on Millicell […] polyethylene terephthalate hanging cell culture inserts. Wild type (NuLi) lung epithelia were treated with perfluorocarbon (FC-72) vehicle, and CuFi epithelia were treated with vehicle or 500 nM AmB and incubated for 24 hours at 37° ° C. On the day of imaging. 2.5 μL of a 70 kDa Texas Red-dextran conjugate (Molecular Probes) solution in PBS was added to the apical side of the membranes, followed by 100 μL of FC-770 to prevent evaporation. These were placed on 100 μL of PBS on a 10 mm glass bottom Fluorodish for imaging (World Precision Instruments). Membranes were imaged immediately after dye addition and again at 24 hours to examine dye absorption. Three Z-stack images per membrane in biological n=6 were taken on an Zeiss LSM700 confocal microscope at 40× oil immersion. These images were analyzed using ImageJ to determine the area of fluorescence in the left hand 200-micron width of each image. Images were converted to 8-bit, Gaussian Blur was applied, and made binary. The parameters for Analyze Particles were particles from 1-Infinity μm^2 in size and from 0%-100% circularity.

[3] = test system: small molecule-rescued trk1Δtrk2Δ cells versus wild type; assay: Probing sensitivities to known chemical inhibitors assay; format: cell-based, Saccharomyces cerevisiae; conditions: FIG. 3E legend
Protocol: Probing sensitivities to known chemical inhibitors assay. Overnight cultures were grown as described in the MIC assay. Prior to harvesting cells, small molecules AmB, nystatin A1 (Riedel-de-Haen), candicidin (TOKU-E), or mepartricin (Santa Cruz Biotechnology) and chemical inhibitors nocodazole (Sigma-Aldrich), ebselen (Cayman Chemical), or bafilomycin BI (Santa Cruz Biotechnology were prepared as stock solutions in DMSO. Saturated cell cultures were centrifuged for 5 minutes at 1000×g. The supernatant was poured off, and cells were resuspended in sterile MilliQ water. Cells were centrifuged again, and supernatant was poured off. The wash step was repeated. The supernatant was poured off, and cells were resuspended in normal potassium YPAD. Cells were diluted with normal potassium YPAD to an OD600 of 0.01. Next, an appropriate volume of AmB, nystatin A1, candicidin, or mepartricin was added to give a final rescuing concentration of 125 nM, 1000 nM, 8 nM, and 8 nM, respectively. A control was prepared by adding the corresponding volume of DMSO to trk1Δtrk2Δ cells. 195 μL of WT+small molecule, 195 μL of trk1Δtrk2Δ+small molecule, and 195 μL of trk1Δtrk2Δ+DMSO were added to a 96 well plate. Next, 5 μL of DMSO or chemical inhibitor was added to each well, with each concentration tested in triplicate for both WT and trk1Δtrk2Δ . The plate was covered and incubated at 30° C. for 24 hours. A BioTek Synergy H1 Hybrid Reader was used to measure the OD600. Utilizing GraphPad PRISM, data were fitted by nonlinear regression, inhibition dose response, variable slope (four parameters) to yield EC50 values with SEM. For statistical analysis, EC50 values from the two treatment groups were compared by unpaired t-test.

[4] = test system: trk1Δtrk2Δ yeast; assay: Sustainable restoration of cell growth assay (max OD600, doubling time); format: cell-based, Saccharomyces cerevisiae
Protocol: Sustainable restoration of cell growth assay. Wild type and trk1 Δtrk2Δ yeast were treated as described in the functional complementation experiment described above, with the trk1 Δtrk2Δ yeast treated with 125 nM AmB. The OD600 was measured every hour for 24 hours, including a reading at time zero. Wild type yeast were then streaked onto normal potassium YPAD agar plates and AmB-rescued TrklAtrk2Δ yeast were streaked onto AmB-containing (0.125 μM) normal potassium YPAD agar plates. These agar plates were then incubated at 30° ° C. for about 48 hours. The same procedure was then repeated for over 42 days, measuring the max OD600 and doubling time every three days. Doubling time was determined using the following equation: Td=(t2−t1)×[log(2)/log (q2/q1)], where t2 and t1 represent the time at the two points and q2 and q1 represent the OD600 values in the exponential phase of growth (OD600 from 0.2 to 0.6).

In the case of C[C@@H]1[C@H](O)[C@@H](C)/C=C/C=C/C=C/C=C/C=C/C=C/C=C/[C@H](O[C@@H]2O[C@H](C)[C@@H](O)[C@H](N)[C@@H]2O)C[C@@H]2O[C@](O)(C[C@@H](O)C[C@@H](O)[C@H](O)CC[C@@H](O)C[C@@H](O)CC(=O)O[C@H]1C)C[C@H](O)[C@H]2C(=O)O [AmB, amphotericin B], the “86Rb+ uptake in trk1Δtrk2Δ cells” value [1] is reported as “uptake was restored”, the “apical surface liquid (ASL) volume of CF epithelia” value ([2]; 500 nM) is reported as “normal ASL volume was restored” and the “ASL height of CuFi-1 epithelia, compound added apically” value ([2]; 500 nM AmB, 24 hours, FIGS. 5A, 5B) is reported as “normal ASL height was restored”. The “dose dependence of ASL restoration” value ([2]; CuFi-1 epithelia, FIG. 5C) was “dose-dependent fashion”, the “optimal dose for ASL restoration” value ([2]; CuFi-1 epithelia, FIG. 5C) was 0.5 µM and the “ASL height of CuFi-1 epithelia, compound added to the basolateral surface” value ([2]; FIG. 5B) was “no increase in ASL height”. For the same compound, the “optimum rescue concentration for trk1Δtrk2Δ cells” value [3] was 0.5 µM, the “doubling time of AmB-rescued trk1Δtrk2Δ cells relative to wild type” value ([4]; 125 nM AmB) was 1.7 times longer and the “sustainability of cell growth of AmB-rescued trk1Δtrk2Δ cells” value ([4]; 125 nM AmB, passed every 3 days for over a month, FIG. 2I) was “sustained, vigorous cell growth”. The “maximum cell density (max OD600) of treated trk1Δtrk2Δ cells” value ([4]; liquid culture after 24 h, versus wild type, FIG. 2G) was “matched that of the wild type”.
